Experimental data reported in patent US5985933A, “Methods for treating central and peripheral nerve pain” (Celgene Corporation, priority 1997, dated 1999).
Like-named read-outs stand apart in the source and are kept apart here.

Tests used:
[1] = tested on: mechanical (tactile) allodynia in nerve ligation (Chung) model rats; assay: animal or person; conditions: for Duration / Time to peak effect / Max. efficacy (% MPE): Table I; for Max. efficacy (% MPE): highest dose tested; for ED50: Rattus norvegicus, ip
Protocol: Rats (male Sprague Dawley, Harlan Industries, Indianapolis, Ind.) are housed in ALAC approved cages using soft bedding and 12/12 hour day/night cycle, in atmospherically maintained rooms in the CTF/VA Animal Vivarium. For the nerve ligation model, rats are typically lesioned at 125-175 g body weight, while for the diabetic rat model, 275-325 gram rats are employed.
Kim SH, Chung JM: An experimental model for peripheral neuropathy produced by segmental spinal nerve ligation in the rat. Pain 50: 355-363 (1992).
Anomalous pain states evoked by nerve injury in man is believed to be modeled by effects produced by chronic peripheral nerve injury lesion in rats. To create a chronic nerve injury the L5 and L6 spinal nerves are visualized by removal of the L6 transverse process. The two spinal nerves are ligated with 6-0 silk thread […] under halothane anesthesia. […] The rats were allowed a 7 day postoperative recovery period before further studies or procedures.
Rats were placed in a clear plastic, wire mesh-bottomed cage, divided into individual compartments of 5×6×9 inches, which permitted freedom of movement while allowing access to the paws to be tested. Animals were allowed to accommodate to this environment for approximately 15 minutes, or until cage exploration behavior ceased. To assess the 50% mechanical threshold for paw withdrawal, von Frey hairs were applied to the plantar mid-hindpaw, avoiding the footpads. The eight von Frey hairs used are designated by and range from 0.4-15.1 grams (#'s3.61-5/18). Each hair was pressed perpendicularly against the paw with sufficient force to cause bending, and held for approximately 6-8 seconds. A positive response was noted if the paw was sharply withdrawn. Absence of a response was cause to present the next consecutive stronger stimulus: a positive response was cause to present the next weaker stimulus. If a change in response occurred, causing a change in the direction of stimulus presentation from descending to ascending or vice-versa, four additional data points were collected subsequent to the change. Stimuli were presented successively until either six data points were collected, or the maximum or minimum stimulus was reached. If a minimum stimulus was reached and positive responses still occurred, the threshold was assigned an arbitrary minimum value of 0.25 grams; if a maximum stimulus was presented and no response occurred, a maximum threshold value of 15 grams was assigned. The resulting pattern of responses was tabulated and the 50% response threshold computed using the formula:
log (threshold, mg×10)=Xf+k∂
Based on observations on normal, unoperated rats and sham-operated rats, the cutoff of a 15.1 g hair is selected as the upper limit for testing. (Chaplan, et al., 1994.)
Four agents were examined. […] The dose range was determined on a single rat on a 0.5 log unit dose until an endpoint of effect was reached (loss of motor function, seizure/rigidity, complete nerve blockage). Once the dose range was established, each drug was examined at a minimum of 3 doses in groups of 6 rats per dose. Groups were prepared to receive injections of drugs, or saline control, by i.p. injection. After the animals accommodated to the post-operative test environment, animals received treatment and the effects upon the tactile threshold were determined using the up-down method as described in Example 3. The following is a typical paradigm for IP application: […]

[2] = tested on: mechanical (tactile) allodynia in streptozotocin diabetic rats; conditions: i.p.; for Duration / Time to peak effect: Table III; for Max. efficacy (% MPE): Table III (3, 10 and 20 mg/kg levels only); for maximum efficacy or highest % suppression of allodynia at highest dosage unaffected by toxicity: Example 6
Protocol: (§1) Rats are made diabetic by a single intraperitoneal injection of streptozotocin (50 mg/kg body weight) freshly dissolved in 0.9% sterile saline) in order to ablate pancreatic β cells and induce insulin deficiency. Two days later, diabetes is confirmed in streptozotocin-injected rats by measuring glucose concentration in a blood sample obtained by tail prick, using a glucose oxidase-impregnated test strip and reflectance meter (Ames Glucostix and Glucometer II, Myles Inc., Elkhart, Ind.) (Calcutt, et al., 1993). Streptozotocin-injected animals with blood glucose concentrations below 15 mmol/l are excluded from subsequent studies. Diabetic rats received thrice weekly sub-cutaneous injections of 2U heat-treated Ultralente insulin (Novo Industrie A/C, Copenhagen, Denmark) in a regime shown to prevent loss of body weight and musculature whilst allowing continued hyperglycemia. Injections were made on Monday, Wednesday and Friday and behavioral measurements made on Tuesdays and Thursdays.

[3] = tested on: mechanical (tactile) allodynia in streptozotocin diabetic rats; assay: animal or person; conditions: Rattus norvegicus, ip
Protocol: as §1

[4] = cited from earlier work
[5] = tested on: painful neuropathies; conditions: oral administration, literature; cited from earlier work
[6] = tested on: cardiac sodium channels; conditions: Hill et al. 1988; cited from earlier work
[7] = tested on: arrhythmia in dogs; conditions: cited from earlier work
[8] = stated without a described test
[9] = read-out: ED 50 or the calculated dose for 50% suppression
[10] = 30 mg/kg, affected by toxicity/behavioral problems, not probative
[11] = Chung model rats, i.p., Example 5

Compound | Duration ([1]; Chung model rats, i.p.) [min] | Time to peak effect ([1]; Chung model rats, i.p.) [min] | Max. efficacy (% MPE) ([1]; Chung model rats, i.p.) | ED50 [1] [mg/kg] | Duration [2] [min] | Time to peak effect [2] [min] | Max. efficacy (% MPE) [2] [% MPE] | ED50 [3] [mg/kg] | ED50 [1, 9] [mg/kg] | % MPE ([2]; 3 mg/kg) [% MPE] | % MPE ([2]; 10 mg/kg) [% MPE] | % MPE ([2]; 20 mg/kg) [% MPE] | % MPE [2, 10] [% MPE] | maximum efficacy or highest % suppression of allodynia at highest dose tested [1, 11] | maximum efficacy or highest % suppression of allodynia at highest dosage unaffected by toxicity [2] | also measured
CCN(CC)CC(=O)Nc1c(C)cccc1C [Lidocaine, lidocaine] | 90 | 15 | 83 | 38 | 30 | 30 | 39 | 32 |  |  |  |  |  |  |  | 
Cc1cccc(C)c1OCC(C)N (racemic) [RS-Mexiletine, (R,S)-mexiletine] | 60 | 15 to 30 | 76 | 35 | < 60 | 30 to 45 | 61 | 17 | 35 | 20 | 29 | 42 | 75 |  |  | therapeutic-toxic concentration range ([4]; Monk et al. 1990): 0.5 to 2.0 µg/mL; incidence of adverse side effects (tremors, diplopia, nausea and vomiting) ([4]; human, in vivo): up to 70% of patients; efficacy in painful neuropathies [5]: has shown efficacy for a variety of painful neuropathies
Cc1cccc(C)c1OC[C@@H](C)N [R-Mexiletine, (R)-mexiletine] |  | 30 | 12 |  |  | 15 to 30 | 11 |  |  | 10 | 15 | 11 | 86 | 12%±5% | 11%±5% | binding affinity relative to (S)-mexiletine [6]: twice that of (S)mexiletine; ED 50 (in words) [1, 11]: could not be calculated due to low effect at maximum dose; antiarrhythmic properties relative to the (S)-isomer ([7]; background finding referred to): greater than two times more antiarrhythmic properties than the (S)-isomer; antiarrhythmic properties relative to the (S)-enantiomer ([7]; dogs, Turgeon et al. 1991): greater antiarrhythmic properties than the (S)-enantiomer
Cc1cccc(C)c1OC[C@H](C)N [S-Mexiletine, (S)-mexiletine] | 60 | 15 | 79 | 14 | 60 | 15 to 45 | 65 | 15 | 14 | 12 | 50 | 30 | 75 | 79%±11% | 65%±16% | therapeutic-toxic range [8]: 0.25 to 4 µg/mL
